According to US9480722B2, “Method of alleviating or treating periodontal disease” (priority 2012, dated 2016):

Tests used:
Porphyromonas gingivalis [1] = test: Determination of minimal bactericidal concentration (MBC), plating on sBHI agar with 5% defibrinated sheep blood; assay type: cell-based
Procedure: Porphyromonas gingivalis was purchased from Food Industry Research and Development Institute ([…], Taiwan) with the accession number BCRC 14417. After thawing from frozen tube, Porphyromonas gingivalis was activated in the supplemented brain heart infusion broth, and cultured at 37° C. anaerobic condition (80% N2, 10% H2, 10% CO2) for 24 hours to 48 hours. […] Chlorhexidine was used as positive control. […]. After Porphyromonas gingivalis with said solution of Antrodia camphorata 95% ethanol extract or chlorhexidine were cultured at 37° C. under anaerobic condition (80% N2, 10% H2, 10% CO2) for 48 hours, 10 μl aliquot […] was added to supplemented brain heart infusion agar with 5% defibrinated sheep blood. Then, broth was gently coated uniformly onto supplemented brain heart infusion agar with 5% defibrinated sheep blood by a triangular sterilized glass rod and cultured at 37° C. anaerobic condition (80% N2, 10% H2, 10% CO2) for 5 days. […] ([…] Castro et al., 2009, Bioorganic & Medicinal Chemistry, 17:5332-5335)

Porphyromonas gingivalis [2] = test: Determination of minimal inhibitory concentration (MIC), broth microplate, absorbance at 600 nm; assay type: cell-based; details: BCRC14417, P. gingivalis BCRC 14417, 24 hours anaerobic, 37° C., concentration at absorbance ≦0.5 at 600 nm
Procedure: Porphyromonas gingivalis was purchased from Food Industry Research and Development Institute ([…], Taiwan) with the accession number BCRC 14417. After thawing from frozen tube, Porphyromonas gingivalis was activated in the supplemented brain heart infusion broth, and cultured at 37° C. anaerobic condition (80% N2, 10% H2, 10% CO2) for 24 hours to 48 hours. […] Chlorhexidine was used as positive control. The 2.5% (v/v) dimethyl sulfoxide was used as normal control.

[H]/N=C(\N/C(=N/[H])NCCCCCCNC(=N)NC(=N)Nc1ccc(Cl)cc1)Nc1ccc(Cl)cc1 [Chlorhexidine, Chlorhexidine digluconate]
MBC (Porphyromonas gingivalis [1]; Porphyromonas gingivalis, BCRC14417): 4 µg/mL | colony growth on supplemented brain heart infusion agar with 5% defibrinated sheep blood (Porphyromonas gingivalis [1]; concentration above 4 μg/ml, FIG. 3): no colony growing | MIC (Porphyromonas gingivalis [2]): 4 µg/mL
